Measurements from patent US11285169B2, “Methods for modulating chemotherapeutic cytotoxicity” (The United States of America, as represented by the …, priority 2013, dated 2022).

Key:
4T1 breast tumors = experiment: 4T1 breast cancer cells in mammary fat pad of Balb/c mice: tumor growth, weight, lung metastasis; format: in vivo, mouse; conditions: for tumor weight at end of study: excised tumors; for tumor growth (tumor volume): weekly treatment, followed for 30 days, Dox i.v., CD47 M i.p. 48 hours before
Method: Balb/c mice were injected with 5×10^3 4 T1 breast cancer cells in the mammary fat pad. Tumors were left untreated, treated with 100 μl of 10 μg/mL doxorubicin (Dox) or with 10 μg/mL Dox in combination with 10 μM CD47 Morpholino (CD47 M). Doxorubicin treatment was given intravenously weekly. Treatment with CD47 M was given intraperitoneally 48 hours prior to doxorubicin injection.
4T1B breast cancer cells were implanted in the mammary fat-pad of Balb/C mice. The mice were treated weekly with saline, doxorubicin, CD47 M, or the combination of CD47 M with doxorubicin. Tumor growth was measured using calipers and was followed for 30 days. Treatment with CD47 morpholino was done two days prior to each treatment with doxorubicin for four weeks.
Tumors were excised at the end of the study and weighed. Tumors of mice treated with saline tripled in size (FIG. 1B).
The 4T1 breast cancer model is a well known model for metastasis of orthotopic breast tumors to lung and other organs. Mice were injected in the mammary fat pad with 4T1 cells. CD47 morpholino was administered intraperitoneally at a dose of 10 μM per mouse. Doxorubicin was adminstered intravenously at a dose of 10 mg/kg. The CD47 morpholino was administered weekly and the Doxorubicin administration was done weekly 48 hours after CD47 treatment. Five mice per group were treated. Lungs were exised, paraffin embedded, and hematoxylin and eosin stain was used to determine tissue structure.

PINK and PARKIN = PINK and PARKIN gene expression by qRT-PCR in 4T1 cells; format: cell-based, mouse; conditions: single agents
Method: Autophagy can promote either survival or death of tissue. Selective mitochondrial turnover by mitophagy in tumor tissue can shift this pathway to a pro-death response (Gargini et al., Autophagy 7:466-476, 2011). To further understand the mechanism of mitophagy in breast cancer cells, 4T1 breast cancer cells were plated and treated with CD47 morpholino for 48 hours. […] Gene expression was determined by qRT-PCR.

B16 melanoma cells = experiment: Oxygen consumption rate, XF24 analyzer, B16 cells; format: cell-based, mouse; conditions: CD47 morpholino 10 μM 48 hours, doxorubicin 10 μg/ml 1 hour
Method: (§1) 4T1 breast cancer cells or B16 melanoma cells (2×10^4 cells) were plated in the presence or absence of CD47 morpholino (10 μM). After a 48 hour period of incubation, cells were treated with doxorubicin for 1 hour (10 μg/ml). OCR and ECAR were measured using an XF24 analyzer (Seahorse Bioscience, N. Billerica, Mass.).
(§2) To start elucidating the molecular mechanism of breast cancer sensitization to anthracycline therapy with CD47 blockade oxygen consumption rate (OCR) was tested. OCR is a measurement of mitochondrial respiration and is extremely sensitive to changes in metabolic demand (Tao et al., Anal. Biochem. 381:43-52, 2008). Increased OCR is an indicator of mitochondrial dysfunction in transformed cells associated with tumor aggressiveness and resistance to therapy (Vaupel and Mayer, Int. J. Biochem. Cell Biol. 44:1477-1481, 2012). To measure OCR, 4T1 breast cancer cells or B16 melanoma cells were plated in 24-well plates using the XF24 flux analyzer (Seahorse Bioscience). Cells were exposed to known mitochondrial poisons (oligomicin, carbonilcyanide p-triflouromethoxy-phenylhydrazone FCCP, or […]) to determine basal and maximal OCR.

[1] = tested on: Glut-1 glucose transporter; experiment: Glut-1 expression in tumors by western blot; format: in vivo, mouse; conditions: western blot of excised tumors
Method: Glucose uptake was measured 24 hours after treatment by adding 2-NBDG, which is a fluorescently labeled deoxyglucose analog that is used primarily to directly monitor glucose uptake by living cells. This confirmed that the combination treatment modified glucose metabolism to sensitize cells to Dox treatment (FIG. 10). Furthermore, blockade of CD47 in combination with dox decreased expression of the Glut-1 glucose transporter in vivo (FIG. 11). Tumors of mice were exised and protein expression was determined by western blot hybridization. Expression of Glut-1 was not affected by treatment with saline, doxorubicin or CD47 morpholino (CD47M) alone. […] Glut-1 facilitates the transport of glucose in cells and is a poor prognostic factor in breast cancer and other cancer types.

CD47 = experiment: Western blot of CD47 protein in tumors; format: in vivo, mouse; conditions: 48 hours after treatment
4T1 breast cancer cells [2] = experiment: Oxygen consumption rate and extracellular acidification rate, XF24 analyzer, 4T1 cells; format: cell-based, mouse; conditions: for extracellular acidification rate (ECAR): 4T1B cells, same treatments as OCR; for oxygen consumption rate (OCR): 4T1 cells, CD47 morpholino 10 μM 48 hours, doxorubicin 10 μg/ml 1 hour
Method: as §1, §2
It is well known that cancer cells show increased glycolytic flux. […] The extracellular acidification rate (ECAR) was measured in 4T1B cells using the XF24 flux analyzer following the same treatments stated above.

wild type Jurkat cells = tested on: wild type Jurkat cells
Method: (§3) Wild type or CD47 null Jurkat T cells were plated at a density of 7×10^3/well in 96 well plates or 500 cells/well in 1536 well plates. Cells were treated with increasing amounts of doxorubicin. Cell viability was measured 48 or 72 hours after treatment by MTS reduction or using CellTiter-Glo® cell viability assay (Promega, Madison Wis.).
(§4) Wild type or CD47 null Jurkat cells were plated at a density of 7×10^3/well in 96 well plates. Cells were treated with 10 μg/ml 5-FU or […] camptothecin. Cell viability was measured 72 hours after treatment by MTS reduction.

CD47 null Jurkat cells = tested on: CD47 null Jurkat cells
Method: as §3, §4

Atg5 and Atg7 = experiment: Autophagy gene expression in hearts of WT and CD47 null mice; format: in vivo, mouse; conditions: 24 hours of treatment
Method: Samples were collected after 24 hours of treatment.
WT and CD47 null mice were treated with doxorubicin to determine effects on autophagy gene expression.

4T1 breast cancer cells [3] = experiment: Cell viability by MTS reduction, 4T1 cells with or without CD47 morpholino; format: cell-based, mouse; conditions: 10 μM CD47 morpholino 48 hours, doxorubicin 72 hours
Method: Cells were plated in the presence or absence of 10 μM CD47 morpholino. After 48 hours, cells were treated with the indicated amounts of doxorubicin (10 μg/ml in FIGS. 7B and C). Cell viability was measured 72 hours after treatment by MTS reduction (FIGS. 7A and D) or 24 hours after treatment by lactate dehydrogenase (LDH) release (FIGS. 7B and C). * p<0.001. Control cells were untreated and Endoporter indicates treatment with vehicle without morpholino in FIGS. 7B and C.
4T1 breast cancer cells were treated with CD47 morpholino and treated with increasing concentrations of doxorubicin.

cardiac tissue = conditions: mouse, in vivo
Description: Hearts were collected from mice at the end of the tumor studies after four rounds of weekly doxorubicin treatment in the presence or absence of CD47 blockade. Sections were paraffin embedded and stained with H&E to determine tissue histology.
Tissue sections were subjected to TUNEL staining to detect cell death.

lung tissue = conditions: mouse, in vivo
PINK = PINK immunostaining of tumor and heart sections; format: in vivo, mouse; conditions: heart
Method: Briefly, slides were deparaffinized in xylene and rehydrated in graded alcohol. Antigen retrieval was performed using microwave antigen retrieval method with Target Retrieval Solution, pH 6.1 (Dako, Carpinteria, Calif.). […] Slides were incubated with respective antibodies. Sections were treated with streptavidin-biotin and DAB (3,3-diaminobenzidine) was used as chromogen. Hematoxylin was used for counterstaining. The intensity of the staining was evaluated under light microscopy.
Tissue sections from the initial tumor model were immune-stained for PINK.

| Compound | tumor weight at end of study (4T1 breast tumors) | tumor growth (tumor volume) (4T1 breast tumors) | PINK and PARKIN gene expression (in words) (PINK and PARKIN) | oxygen consumption rate (OCR) (B16 melanoma cells) | Glut-1 expression in tumors [1] | CD47 protein in tumors (CD47) | extracellular acidification rate (ECAR) (4T1 breast cancer cells [2]) | oxygen consumption rate (OCR) (4T1 breast cancer cells [2]) | cytotoxicity (wild type Jurkat cells; human) [%] | cytotoxicity (CD47 null Jurkat cells; human) [%] | Atg5 and Atg7 mRNA levels in hearts (Atg5 and Atg7; CD47 null mice) | Atg5 mRNA level in hearts (Atg5 and Atg7; WT mice) | cell viability (wild type Jurkat cells; WT Jurkat T cells, increasing concentration of doxorubicin, 72 hours) | cell viability (CD47 null Jurkat cells; CD47 deficient Jurkat T cells, increasing concentration of doxorubicin, 72 hours) | cell viability (4T1 breast cancer cells [3]) | cardiac tissue histology (H&E) (cardiac tissue) | cell death in cardiac tissue (TUNEL staining) (cardiac tissue) | lung tissue condition / fibrosis (lung tissue) | PINK expression in hearts (PINK) |
| --- | --- | --- | --- | --- | --- | --- | --- | --- | --- | --- | --- | --- | --- | --- | --- | --- | --- | --- | --- |
| CD47 morpholino: antisense morpholino oligonucleotide complementary to human and murine CD47, CGTCACAGGCAGGACCCACTGCCCA (SEQ ID NO: 3) (all phosphorodiamidate morpholino (PMO)) | reduction in tumor weight | slightly delayed tumor growth | minimal effects | caused a reduction in OCR | not affected | decrease in CD47 protein | slight decrease in the ECAR | caused a reduction in OCR | – | – | – | – | – | – | – | – | – | – | – |
| CC[C@@]1(O)C(=O)OCc2c1cc1n(c2=O)Cc2cc3ccccc3nc2-1 [Camptothecin] | – | – | – | – | – | – | – | – | 79 | 56 | – | – | – | – | – | – | – | – | – |
| COc1cccc2c1C(=O)c1c(O)c3c(c(O)c1C2=O)C[C@@](O)(C(=O)CO)C[C@@H]3O[C@H]1C[C@H](N)[C@H](O)[C@H](C)O1 [Doxorubicin] | reduction in tumor weight | slightly delayed tumor growth | minimal effects | showed the same pattern | not affected | – | high acidification in the media | showed the same pattern | – | – | markedly increased | slight reduction of Atg5 | decreased viability | dose-dependent protection | reduction in cell viability | characteristic degeneration of cardiac muscle | high TUNEL positive staining | less fibrosis | No change in PINK expression |
